Assay results: ChEMBL document CHEMBL4177762, “Combined Approach of Backbone Amide Linking and On-Resin N-Methylation for the Synthesis of Bioactive and Metabolically Stable Peptides” (J Med Chem, 2018)
Values after ≈ are worked out from the molar mass of the structure shown. Active and inactive are the calls of the source. No cut-off for these calls is given here. Non-standard residues stand in square brackets, D forms with d. Residues, ends and D or L forms follow the SMILES beside them. *: point of attachment. NMeVal(β-OH) = CN[C@H](C(=O)O)C(C)(C)O; NH(4-OH-phenethyl) = Oc1ccc(CCN*)cc1; Val(3-OH) = CC(C)(O)[C@H](N)C(=O)O; NMeL = CN[C@@H](CC(C)C)C(=O)O; NHPhenethyl = c1ccc(CCN*)cc1; NMeV = CN[C@H](C(=O)O)C(C)C

Legend:
[1] = Drug level in Sprague-Dawley rat liver microsomes assessed as CYP450-mediated compound formation treated with (S)-2-amino-3-methyl-N-((S)-3-methyl-1-((S)-3-methyl-1-((S)-3-methyl-1-oxo-1-(phenethylamino)butan-2-ylamino)-1-oxobutan-2-ylamino)-1-oxobutan-2-yl)butanamide at 1 mM preincubated with NADPH regenerating system followed by microsome addition measured after 15 to 60 mins by HR-HPLC-MS method; type: ADME; settings: 1000 µM
[2] = system: Trypanosoma brucei rhodesiense; experiment: Antiprotozoal activity against trypomastigote stage of Trypanosoma brucei rhodesiense STIB900 after 72 hrs by Alamar Blue assay; type: functional, organism-based
Enterococcus faecalis = experiment: Antibacterial activity against Enterococcus faecalis ATCC 29212 assessed as growth inhibition up to 128 ug/ml; type: functional, organism-based
Escherichia coli = experiment: Antibacterial activity against Escherichia coli ATCC 25922 assessed as growth inhibition up to 128 ug/ml; type: functional, organism-based
[3] = Drug metabolism in Sprague-Dawley rat liver microsomes assessed as CYP450-mediated (S)-3-hydroxy-N,3-dimethyl-N-((S)-3-methyl-1-(methyl((S)-3-methyl-1-(methyl((S)-3-methyl-1-oxo-1-(phenethylamino)butan-2-yl)amino)-1-oxobutan-2-yl)amino)-1-oxobutan-2-yl)-2-(methylamino)butanamide formation at 1 mM preincubated with NADPH regenerating system followed by microsome addition measured after 15 to 60 mins by HR-HPLC-MS method; type: ADME; settings: 1000 µM
Staphylococcus aureus [4] = experiment: Antibacterial activity against Staphylococcus aureus ATCC 29213 assessed as growth inhibition up to 128 ug/ml; type: functional, organism-based
[5] = Half life in Galleria mellonella hemolymph plasma at 0.5 mM by HPLC-MS method; type: ADME, cell-free
Micrococcus luteus = experiment: Antibacterial activity against Micrococcus luteus ATCC 9341 assessed as growth inhibition up to 128 ug/ml; type: functional, organism-based
Pseudomonas aeruginosa = experiment: Antibacterial activity against Pseudomonas aeruginosa ATCC 27853 assessed as growth inhibition up to 128 ug/ml; type: functional, organism-based
[6] = Drug metabolism in Sprague-Dawley rat liver microsomes assessed as CYP450-mediated (S)-2-((S)-N,3-dimethyl-2-(methylamino)butanamido)-N-((S)-1-(((S)-1-(4-hydroxyphenethylamino)-3-methyl-1-oxobutan-2-yl)(methyl)amino)-3-methyl-1-oxobutan-2-yl)-N,3-dimethylbutanamide formation at 1 mM preincubated with NADPH regenerating system followed by microsome addition measured after 15 to 60 mins by HR-HPLC-MS method; type: ADME; settings: 1000 µM
Staphylococcus aureus [7] = experiment: Antibacterial activity against methicillin-resistant Staphylococcus aureus ATCC 43300 assessed as growth inhibition up to 128 ug/ml; type: functional, organism-based
[8] = Drug level in Sprague-Dawley rat liver microsomes assessed as CYP450-mediated compound formation treated with (S)-2-((S)-N,3-dimethyl-2-(methylamino)butanamido)-N,3-dimethyl-N-((S)-3-methyl-1-(methyl((S)-3-methyl-1-oxo-1-(phenethylamino)butan-2-yl)amino)-1-oxobutan-2-yl)butanamide at 1 mM preincubated with NADPH regenerating system followed by microsome addition measured after 15 to 60 mins by HR-HPLC-MS method; type: ADME; settings: 1000 µM
L6 = experiment: Cytotoxicity against rat L6 cells after 72 hrs by Alamar Blue assay; type: cell-based; settings: L6, 72 h
[9] = Drug metabolism in Sprague-Dawley rat liver microsomes assessed as CYP450-mediated (S)-2-((S)-2-((S)-2-amino-3-methylbutanamido)-3-methylbutanamido)-3-hydroxy-3-methyl-N-((S)-3-methyl-1-oxo-1-(phenethylamino)butan-2-yl)butanamide formation at 1 mM preincubated with NADPH regenerating system followed by microsome addition measured after 15 to 60 mins by HR-HPLC-MS method; type: ADME; settings: 1000 µM
[10] = Drug metabolism in Sprague-Dawley rat liver microsomes assessed as CYP450-mediated (S)-2-amino-N-((S)-1-((S)-1-((S)-1-(4-hydroxyphenethylamino)-3-methyl-1-oxobutan-2-ylamino)-3-methyl-1-oxobutan-2-ylamino)-3-methyl-1-oxobutan-2-yl)-3-methylbutanamide formation at 1 mM preincubated with NADPH regenerating system followed by microsome addition measured after 15 to 60 mins by HR-HPLC-MS method; type: ADME; settings: 1000 µM
[11] = Drug metabolism in Sprague-Dawley rat liver microsomes assessed as CYP450-mediated (S)-2-((S)-2-amino-3-methylbutanamido)-3-hydroxy-3-methyl-N-((S)-3-methyl-1-((S)-3-methyl-1-oxo-1-(phenethylamino)butan-2-ylamino)-1-oxobutan-2-yl)butanamide formation at 1 mM preincubated with NADPH regenerating system followed by microsome addition measured after 15 to 60 mins by HR-HPLC-MS method; type: ADME; settings: 1000 µM

SMILES | Drug metabolism [1] | growth inhibition (GI) (Enterococcus faecalis) | growth inhibition (GI) (Escherichia coli) | growth inhibition (GI) (Staphylococcus aureus [4]) | growth inhibition (GI) (Micrococcus luteus) | growth inhibition (GI) (Pseudomonas aeruginosa) | growth inhibition (GI) (Staphylococcus aureus [7]) | other results
CC(C)[C@H](N)C(=O)N[C@H](C(=O)N[C@H](C(=O)N[C@H](C(=O)NCCc1ccc(O)cc1)C(C)C)C(C)C)C(C)C (H-VVVV-{NH(4-OH-phenethyl)}) | Metabolite_Detected |  |  |  |  |  |  | 
CN[C@H](C(=O)N(C)[C@H](C(=O)N(C)[C@H](C(=O)N(C)[C@H](C(=O)NCCc1ccccc1)C(C)C)C(C)C)C(C)C)C(C)C (H-[NMeV][NMeV][NMeV][NMeV]-NHPhenethyl) |  | inactive | inactive | inactive | inactive | inactive | inactive | Activity [2]: Active; Drug metabolism [3]: Metabolite_Detected; half-life at 500 µM [5]: > 240 min; Drug metabolism [6]: Metabolite_Detected
CC(C)[C@H](N)C(=O)N[C@H](C(=O)N[C@H](C(=O)N[C@H](C(=O)NCCc1ccccc1)C(C)C)C(C)C)C(C)(C)O (H-V[Val(3-OH)]VV-NHPhenethyl) | Metabolite_Detected |  |  |  |  |  |  | 
CN[C@H](C(=O)N(C)[C@H](C(=O)N(C)[C@H](C(=O)N(C)[C@H](C(=O)NCCc1ccccc1)C(C)C)C(C)C)C(C)C)C(C)(C)O (H-[NMeVal(β-OH)][NMeV][NMeV][NMeV]-NHPhenethyl) |  |  |  |  |  |  |  | Drug metabolism [8]: Metabolite_Detected
CC(C)[C@H](N)C(=O)N[C@H](C(=O)N[C@H](C(=O)N[C@H](C(=O)NCCc1ccccc1)C(C)C)C(C)(C)O)C(C)C (H-VV[Val(3-OH)]V-NHPhenethyl) | Metabolite_Detected |  |  |  |  |  |  | 
CN[C@@H](CC(C)C)C(=O)N(C)[C@@H](CC(C)C)C(=O)N(C)[C@@H](CC(C)C)C(=O)N(C)[C@@H](CC(C)C)C(=O)NCCc1ccccc1 |  | inactive | inactive | inactive | inactive | inactive | inactive | IC50 (L6): 16.7 µg/mL (≈ 26.5 µM); IC50 ([2]; STIB900, 72 h): 1.4 to 2.1 µg/mL (≈ 2.22 to 3.33 µM)
CN[C@H](C(=O)N(C)[C@H](C(=O)N(C)[C@H](C(=O)N(C)[C@H](C(=O)NCCc1ccc(O)cc1)C(C)C)C(C)C)C(C)C)C(C)C (H-[NMeV][NMeV][NMeV][NMeV]-{NH(4-OH-phenethyl)}) |  |  |  |  |  |  |  | Drug metabolism [8]: Metabolite_Detected
CC(C)[C@H](N)C(=O)N[C@H](C(=O)N[C@H](C(=O)N[C@H](C(=O)NCCc1ccccc1)C(C)C)C(C)C)C(C)C (H-VVVV-NHPhenethyl) |  |  |  |  |  |  |  | Drug metabolism [9]: Metabolite_Detected; Drug metabolism [10]: Metabolite_Detected; half-life at 500 µM [5]: 30 min; Drug metabolism [11]: Metabolite_Detected
CN[C@@H](CC(C)C)C(=O)N(C)[C@@H](CC(C)C)C(=O)N(C)[C@@H](CC(C)C)C(=O)N(C)[C@@H](CC(C)C)C(=O)NCCc1ccc(O)cc1 (H-[NMeL][NMeL][NMeL][NMeL]-{NH(4-OH-phenethyl)}) |  | inactive | inactive | inactive | inactive | inactive | inactive | IC50 (L6): 30.6 µg/mL (≈ 47.4 µM)
